Laboratory results as given in patent US4818761A, “2-(4-pyridylaminomethyl)-benzimidazole derivatives having antiviral activity” (priority 1986, dated 1989).
In brackets after ≈: the same amount, converted by molar mass.

Key:
[1] = system: coxsackievirus type B4 (CB4); experiment: Inhibition of CB4 plaque formation in LLC-MK2 cells; assay type: cell-based; conditions: for CI CB4 (C)/(A): CI = CD50 (LLC-MK2)/IC50 (plaque); for IC50: Coxsackievirus, plaque reduction, LLC-MK2 cells, 37° C.
[2] = system: rhinovirus type 14 (HRV14); experiment: Inhibition of HRV14 plaque formation in HeLa cells; assay type: cell-based; conditions: for CI HRV14 (D)/(B): CI = CD50 (HeLa)/IC50 (plaque); for IC50: Enterovirus, HRV14, plaque reduction, HeLa cells, 33° C.
[3] = system: enterovirus type 70 (EV70); experiment: Inhibition of EV70 plaque formation in LLC-MK2 cells; assay type: cell-based; conditions: for CI EV70 (C)/(A): CI = CD50 (LLC-MK2)/IC50 (plaque); for IC50: Enterovirus D, plaque reduction, LLC-MK2 cells, 33° C.
in vitro [4] = conditions: human, hela cells
in vitro [5] = conditions: monkey, llc-mk2 cells
[6] = system: poliovirus type 2 (Polio2); experiment: microbe, parasite or virus in culture; assay type: cell-based; conditions: for CI Polio2 (C)/(A): CI = CD50 (LLC-MK2)/IC50 (plaque); for IC50: Enterovirus C, LLC-MK2, read-out: IC50 Polio2
[7] = system: rhinovirus type 14 (HRV14); experiment: Inhibition of HRV14 cytopathogenic effect (CPE) in HeLa cells; assay type: cell-based; conditions: for IC50: Enterovirus, HRV14, * Virus CPE inhibition assay, HeLa cells, 33° C.
[8] = system: coxsackievirus type B4 (CB4); experiment: Inhibition of CB4 cytopathogenic effect (CPE) in LLC-MK2 cells; assay type: cell-based; conditions: for IC50: Coxsackievirus, * Virus CPE inhibition assay, LLC-MK2 cells, 37° C.
[9] = system: enterovirus type 70 (EV70); experiment: Inhibition of EV70 cytopathogenic effect (CPE) in LLC-MK2 cells; assay type: cell-based; conditions: Enterovirus D; * Virus CPE inhibition assay, LLC-MK2 cells, 33° C.

Compound | CI CB4 (C)/(A) [1] | IC50 [1] | CI HRV14 (D)/(B) [2] | IC50 [2] | CI EV70 (C)/(A) [3] | IC50 [3] | CC50 (in vitro [4]) | CC50 (in vitro [5]) | CI Polio2 (C)/(A) [6] | IC50 [6] | IC50 [7] | IC50 [8] | IC50 [9] | CI CB4 (C)/(A) ([8]; CI = CD50 (LLC-MK2)/IC50 (virus CPE)) | CI HRV14 (D)/(B) ([7]; CI = CD50 (HeLa)/IC50 (virus CPE))
Clc1ccc(-n2c(CNc3ccncc3)nc3ccccc32)cc1 [LIX] | > 1,176 | 0.85 µg/mL (≈ 2.54 µM) | > 4 | 25 µg/mL (≈ 74.7 µM) | > 833 | 1.2 µg/mL (≈ 3.58 µM) | > 100 µg/mL | > 1000 µg/mL | > 111 | 9.6 µg/mL (≈ 28.7 µM) |  |  |  |  | 
CC(C)(C)C(=O)Cn1c(CNc2ccncc2)nc2ccccc21 [LIII] |  |  |  |  |  |  |  | > 2000 µg/mL |  |  | > 100 µg/mL | > 100 µg/mL | > 100 µg/mL |  | 
Fc1ccccc1-n1c(CNc2ccncc2)nc2ccccc21 [LVII] | 233 | 8.6 µg/mL (≈ 27 µM) |  |  | 83 | 24.1 µg/mL (≈ 75.7 µM) | > 100 µg/mL | 2000 µg/mL (≈ 6280 µM) |  | > 100 µg/mL | > 100 µg/mL |  |  |  | 
Brc1ccc(-n2c(CNc3ccncc3)nc3ccccc32)cc1 [LX] | > 100 | 1 µg/mL (≈ 2.64 µM) | > 3 | 39.9 µg/mL (≈ 105 µM) | > 53 | 1.9 µg/mL (≈ 5.01 µM) | > 100 µg/mL | > 100 µg/mL |  | > 50 µg/mL |  |  |  |  | 
Cc1cc2nc(CNc3ccncc3)[nH]c2cc1Cl [XXIX] | 15 | 11.5 µg/mL (≈ 42.2 µM) | 15 | 3.8 µg/mL (≈ 13.9 µM) | 118 | 1.5 µg/mL (≈ 5.5 µM) | 56.2 µg/mL (≈ 206 µM) | 177 µg/mL (≈ 648 µM) | 3 | 52 µg/mL (≈ 191 µM) |  |  |  |  | 
Brc1ccc2[nH]c(CNc3ccncc3)nc2c1 [I, 2-(4-pyridylaminomethyl)-5-(6)-bromobenzimidazole] | 17 | 18 µg/mL (≈ 59.4 µM) | 3 | 5.8 µg/mL (≈ 19.1 µM) | 101 | 3.1 µg/mL (≈ 10.2 µM) | 17.8 µg/mL (≈ 58.7 µM) | 312 µg/mL (≈ 1030 µM) |  | > 25 µg/mL |  |  |  |  | 
CC(C)c1ccc2[nH]c(CNc3ccncc3)nc2c1 [VI] | > 15 | 69 µg/mL (≈ 259 µM) | 3 | 16.5 µg/mL (≈ 61.9 µM) | > 476 | 2.1 µg/mL (≈ 7.88 µM) | 56.2 µg/mL (≈ 211 µM) | > 1000 µg/mL |  | > 100 µg/mL |  |  |  |  | 
CC(C)Cn1c(CNc2ccncc2)nc2ccccc21 [XLIX] |  |  |  |  |  | > 100 µg/mL |  | > 2000 µg/mL |  |  | > 100 µg/mL | 2.1 µg/mL (≈ 7.49 µM) |  | > 952 | 
CCc1ccc2nc(CNc3ccncc3)n(-c3ccccc3)c2c1 [XLV] | 11 | 5 µg/mL (≈ 15.2 µM) |  |  | 35 | 1.6 µg/mL (≈ 4.87 µM) | 56.2 µg/mL (≈ 171 µM) | 56.2 µg/mL (≈ 171 µM) |  | > 100 µg/mL | 5.6 µg/mL (≈ 17.1 µM) |  |  |  | 10
Cc1ccc(-n2c(CNc3ccncc3)nc3ccccc32)cc1F [LXXI] | > 31 | 3.2 µg/mL (≈ 9.63 µM) | > 2 | 49.7 µg/mL (≈ 150 µM) | > 25 | 4 µg/mL (≈ 12 µM) | > 100 µg/mL | > 100 µg/mL |  | > 50 µg/mL |  |  |  |  | 
Clc1ccc2nc(CNc3ccncc3)n(-c3ccccc3)c2c1 [XLVII] | > 250 | 1.2 µg/mL (≈ 3.58 µM) | 4 | 4.4 µg/mL (≈ 13.1 µM) | > 130 | 2.3 µg/mL (≈ 6.87 µM) | 17.8 µg/mL (≈ 53.2 µM) | > 300 µg/mL |  | > 100 µg/mL |  |  |  |  | 
Cc1ccc(-n2c(CNc3ccncc3)nc3ccccc32)cc1C [LXX] | > 6 | 16 µg/mL (≈ 48.7 µM) | > 2 | 40.7 µg/mL (≈ 124 µM) | > 15 | 6.5 µg/mL (≈ 19.8 µM) | > 100 µg/mL | > 100 µg/mL |  | > 50 µg/mL |  |  |  |  | 
c1ccc(Oc2ccc3[nH]c(CNc4ccncc4)nc3c2)cc1 [LXXIV] |  |  | > 6 | 17.8 µg/mL (≈ 56.3 µM) |  |  | > 100 µg/mL | > 100 µg/mL |  |  |  | > 100 µg/mL | > 100 µg/mL |  | 
CCOCCn1c(CNc2ccncc2)nc2ccccc21 [LIV] |  |  |  |  |  |  |  | > 2000 µg/mL |  |  | > 100 µg/mL | > 100 µg/mL | > 100 µg/mL |  | 
